Where two headings read alike, the source gives them in different places.
Key:
cytochrome c = assay type: cell-based, mouse; details: for cyt c (composite Z-score): normalized score vs mock-treated (DMSO) wells
[1] = tested on: cellular dehydrogenase activity; details: for MTT (composite Z-score): normalized score vs mock-treated (DMSO) wells
C2C12 myotubes = details: for Viability (composite Z-score): normalized score vs mock-treated (DMSO) wells
nuOXPHOS transcripts = assay type: cell-based, mouse; details: for nucOX (composite Z-score): normalized score vs mock-treated (DMSO) wells
mtOXPHOS transcripts = assay type: cell-based, mouse; details: for mitoOX (composite Z-score): normalized score vs mock-treated (DMSO) wells
[2] = tested on: mitochondrial membrane potential; assay type: cell-based, mouse; details: for ΔΨm (composite Z-score): normalized score vs mock-treated (DMSO) wells
reactive oxygen species = assay type: cell-based, mouse; details: for ROS (composite Z-score): normalized score vs mock-treated (DMSO) wells
OXPHOS gene expression = assay type: cell-based, mouse; details: for GE-HTS (composite Z-score): normalized score vs mock-treated (DMSO) wells
[3] = normalized composite Z-score vs mock-treated (DMSO) wells, Conc 20 μM
[4] = composite Z-score vs DMSO, Conc 20 μM
[5] = composite Z-score vs mock-treated (DMSO) wells, Conc 20 μM
[6] = 20 μM, composite Z-score vs DMSO

C=C[C@@](C)(O)CCC1C(=C)CCC2[C@@](C)(CO)CCC[C@]12C (stereo partly drawn) [epi(13)torulosol] was tested, and the cyt c (cytochrome c; [3]) was 0.483, the MTT [1, 3] was 0.603 and the Viability (C2C12 myotubes; [3]) was 0.367. The nucOX (nuOXPHOS transcripts; [3]) was 0.342, the mitoOX (mtOXPHOS transcripts; [3]) was 0.643 and the ΔΨm [2, 3] was 0.022. For the same molecule, the ROS (reactive oxygen species; [3]) was 1.180 and the GE-HTS (OXPHOS gene expression; [3]) was 0.491.

COc1ccc([C@H]2Oc3cc(OC)cc(OC)c3C[C@H]2O)cc1 [epiafzelechin trimethyl ether] showed a cyt c (cytochrome c; [3]) of 1.099, an MTT [1, 3] of −0.884 and a Viability (C2C12 myotubes; [3]) of 0.557. For the same molecule, the nucOX (nuOXPHOS transcripts; [3]) was −0.134, the mitoOX (mtOXPHOS transcripts; [3]) was 0.350 and the ΔΨm [2, 3] was −0.324. For the same molecule, the ROS (reactive oxygen species; [3]) was −0.190 and the GE-HTS (OXPHOS gene expression; [3]) was 0.019.

For C[C@]12CCC3C(CC[C@H]4C[C@H](O)CC[C@]34C)C1CC[C@@H]2O (stereo partly drawn) [epiandrostanediol], the cyt c (cytochrome c; [4]) was −0.201, the MTT [1, 4] was −0.207 and the Viability (C2C12 myotubes; [4]) was 1.143. For the same molecule, the nucOX (nuOXPHOS transcripts; [4]) was −0.203, the mitoOX (mtOXPHOS transcripts; [4]) was 0.190 and the ΔΨm [2, 4] was −0.156. It also gave an ROS (reactive oxygen species; [4]) of 0.113 and a GE-HTS (OXPHOS gene expression; [4]) of −0.069.

In the case of Oc1cc(O)c2c(c1)O[C@H](c1ccc(O)c(O)c1)[C@H](O)C2 [epicatechin, reference compound], the cyt c (cytochrome c) is reported as 0.446, the cyt c (cytochrome c; [4]) is reported as 0.110 and the cyt c (cytochrome c; [3]) is reported as 0.850. The MTT [1, 4] was −1.915, the MTT [1, 3] was −1.556 and the Viability (C2C12 myotubes; [4]) was −1.380. The Viability (C2C12 myotubes; [3]) was 0.687, the nucOX (nuOXPHOS transcripts; [4]) was 0.310 and the nucOX (nuOXPHOS transcripts; [3]) was −0.773. The mitoOX (mtOXPHOS transcripts; [4]) was 0.641, the mitoOX (mtOXPHOS transcripts; [3]) was −0.631 and the ΔΨm [2, 4] was −2.452. The ΔΨm [2, 3] was −1.802, the ROS (reactive oxygen species; [4]) was −0.465 and the ROS (reactive oxygen species; [3]) was −0.199. It also gave a GE-HTS (OXPHOS gene expression; [4]) of 0.431 and a GE-HTS (OXPHOS gene expression; [3]) of −0.754.

Molecule O=C(Oc1cc(O)cc2c1C[C@@H](OC(=O)c1cc(O)c(O)c(O)c1)[C@@H](c1cc(O)c(O)c(O)c1)O2)c1cc(O)c(O)c(O)c1 [epigallocatechin 3,5-digallate] has a cyt c (cytochrome c; [3]) of 1.040, an MTT [1, 3] of −1.667 and a Viability (C2C12 myotubes; [3]) of 0.969. For the same molecule, the nucOX (nuOXPHOS transcripts; [3]) was −1.625, the mitoOX (mtOXPHOS transcripts; [3]) was −1.133 and the ΔΨm [2, 3] was −2.135. The ROS (reactive oxygen species; [3]) was 0.118 and the GE-HTS (OXPHOS gene expression; [3]) was −1.581.

C/C1=C\CC(C)(C)/C=C/CC2(C)OC2CC1 (stereo not drawn) [epoxy (1,11)humulene] was tested, and the “cyt c (composite Z-score)” value (cytochrome c; Conc 20 μM) was 0.979, the “MTT (composite Z-score)” value ([1]; Conc 20 μM) was −0.802 and the “Viability (composite Z-score)” value (C2C12 myotubes; Conc 20 μM) was 1.157. The “nucOX (composite Z-score)” value (nuOXPHOS transcripts; Conc 20 μM) was −1.115, the “mitoOX (composite Z-score)” value (mtOXPHOS transcripts; Conc 20 μM) was −1.021 and the “ΔΨm (composite Z-score)” value ([2]; Conc 20 μM) was −0.509. The “ROS (composite Z-score)” value (reactive oxygen species; Conc 20 μM) was −0.355 and the “GE-HTS (composite Z-score)” value (OXPHOS gene expression; Conc 20 μM) was −1.172.

C[C@@H]1C(=O)O[C@H]2[C@H]1CC[C@@]1(C)C=CC(=O)[C@@]3(C)O[C@@]213 [epoxy (4,5alpha)-4,5-dihydrosantonin] was tested, and the cyt c (cytochrome c; [5]) was 0.552, the MTT [1, 5] was 0.041 and the Viability (C2C12 myotubes; [5]) was 0.133. It also gave a nucOX (nuOXPHOS transcripts; [5]) of −0.614, a mitoOX (mtOXPHOS transcripts; [5]) of −0.901 and a ΔΨm [2, 5] of 0.199. The ROS (reactive oxygen species; [5]) was −1.367 and the GE-HTS (OXPHOS gene expression; [5]) was −0.736.

With CC(=O)O[C@@H]1CC2C(C)(C)C(=O)C3OC3[C@]2(C)C2CC[C@@]3(C)[C@H](c4ccoc4)OC(=O)C4OC43[C@@]21C (stereo partly drawn) [epoxygedunin] the “cyt c (composite Z-score)” value (cytochrome c; Conc 20 μM) was 0.248, the “MTT (composite Z-score)” value ([1]; Conc 20 μM) was −1.657 and the “Viability (composite Z-score)” value (C2C12 myotubes; Conc 20 μM) was 0.052. The “nucOX (composite Z-score)” value (nuOXPHOS transcripts; Conc 20 μM) was −1.130, the “mitoOX (composite Z-score)” value (mtOXPHOS transcripts; Conc 20 μM) was −1.005 and the “ΔΨm (composite Z-score)” value ([2]; Conc 20 μM) was 0.274. The “ROS (composite Z-score)” value (reactive oxygen species; Conc 20 μM) was 0.409 and the “GE-HTS (composite Z-score)” value (OXPHOS gene expression; Conc 20 μM) was −1.146.

For C[C@]12CC[C@H]3C(=CCc4cc(O)ccc43)[C@@H]1CCC2=O [equilin], the cyt c (cytochrome c) was −0.069, the MTT [1] was −2.270 and the Viability (C2C12 myotubes) was −0.882. For the same molecule, the nucOX (nuOXPHOS transcripts) was −0.538, the mitoOX (mtOXPHOS transcripts) was −0.676 and the ΔΨm [2] was −0.408. The ROS (reactive oxygen species) was 0.259 and the GE-HTS (OXPHOS gene expression) was −0.626.

Work on C=C1CC[C@H](O)C/C1=C/C=C1\CCC[C@]2(C)[C@@H]([C@H](C)/C=C/[C@H](C)C(C)C)CC[C@@H]12 [ergocalciferol] yielded a cyt c (cytochrome c; [6]) of −0.118, an MTT [1, 6] of −1.658 and a Viability (C2C12 myotubes; [6]) of 0.372. For the same molecule, the nucOX (nuOXPHOS transcripts; [6]) was 0.723, the mitoOX (mtOXPHOS transcripts; [6]) was 0.357 and the ΔΨm [2, 6] was −0.449. It also gave an ROS (reactive oxygen species; [6]) of 1.541 and a GE-HTS (OXPHOS gene expression; [6]) of 0.661.

With CC(C)[C@@H](C)C=C[C@@H](C)[C@H]1CC[C@H]2C3=CCC4CC(=O)CC[C@]4(C)[C@H]3CC[C@]12C (stereo partly drawn) [ergosta-7,22-dien-3-one] the cyt c (cytochrome c; [4]) was 0.221, the MTT [1, 4] was −2.474 and the Viability (C2C12 myotubes; [4]) was −0.892. For the same molecule, the nucOX (nuOXPHOS transcripts; [4]) was −0.764, the mitoOX (mtOXPHOS transcripts; [4]) was −0.415 and the ΔΨm [2, 4] was −0.544. The ROS (reactive oxygen species; [4]) was 0.912 and the GE-HTS (OXPHOS gene expression; [4]) was −0.708.

Work on CC(C)[C@@H](C)/C=C/[C@@H](C)[C@H]1CC[C@H]2C3=CC=C4C[C@@H](O)CC[C@]4(C)[C@H]3CC[C@]12C [ergosterol] yielded a cyt c (cytochrome c; [4]) of 0.386, an MTT [1, 4] of −1.864 and a Viability (C2C12 myotubes; [4]) of −0.792. It also gave a nucOX (nuOXPHOS transcripts; [4]) of 0.420, a mitoOX (mtOXPHOS transcripts; [4]) of −0.240 and a ΔΨm [2, 4] of −0.489. It also gave an ROS (reactive oxygen species; [4]) of −0.198 and a GE-HTS (OXPHOS gene expression; [4]) of 0.231.
